PubChem BioAssay (NCI)
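Briefly, cells in 96-well plates were exposed to five compound concentrations for 48 h, and endpoints were estimated by linear interpolation. GI50 = concentration required for 50% inhibition of growth. TGI is the concentration that stops growth completely.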

Assays:
Test in all cases: DTP human tumour cell line panel, 48 h
NCI-H23 lung = system: NCI-H23 lung
NCI-H460 lung = system: NCI-H460 lung
NCI-H522 lung = system: NCI-H522 lung
NCI/ADR-RES ovarian = system: NCI/ADR-RES ovarian
OVCAR-3 ovarian = system: OVCAR-3 ovarian
OVCAR-4 ovarian = system: OVCAR-4 ovarian
OVCAR-5 ovarian = system: OVCAR-5 ovarian
OVCAR-8 ovarian = system: OVCAR-8 ovarian
PC-3 prostate = system: PC-3 prostate
RPMI-8226 leukemia = system: RPMI-8226 leukemia
SF-268 CNS = system: SF-268 CNS
SF-295 CNS = system: SF-295 CNS
SF-539 CNS = system: SF-539 CNS
SK-MEL-2 melanoma = system: SK-MEL-2 melanoma
SK-MEL-28 melanoma = system: SK-MEL-28 melanoma
SK-MEL-5 melanoma = system: SK-MEL-5 melanoma
SK-OV-3 ovarian = system: SK-OV-3 ovarian
SN12C renal = system: SN12C renal
SNB-19 CNS = system: SNB-19 CNS
SNB-75 CNS = system: SNB-75 CNS
SR leukemia = system: SR leukemia
SW-620 colon = system: SW-620 colon
T-47D breast = system: T-47D breast
TK-10 renal = system: TK-10 renal
U251 CNS = system: U251 CNS
UACC-257 melanoma = system: UACC-257 melanoma
UACC-62 melanoma = system: UACC-62 melanoma
UO-31 renal = system: UO-31 renal

`O=C(Nc1cccc2[nH]c(C(F)(F)F)nc12)c1cc(Cl)ccc1Cl` showed a GI50 (NCI-H23 lung) of 2.81 µM, a TGI (NCI-H23 lung) of 7.78 µM and a GI50 (NCI-H460 lung) of 3.09 µM. The TGI (NCI-H460 lung) was > 100 µM, the GI50 (NCI-H522 lung) was 2.27 µM and the TGI (NCI-H522 lung) was 6.2 µM. The GI50 (NCI/ADR-RES ovarian) was 2.87 µM, the TGI (NCI/ADR-RES ovarian) was 8.89 µM and the GI50 (OVCAR-3 ovarian) was 3.4 µM. The TGI (OVCAR-3 ovarian) was 10.3 µM, the GI50 (OVCAR-4 ovarian) was 2.59 µM and the TGI (OVCAR-4 ovarian) was > 100 µM. For the same compound, the GI50 (OVCAR-5 ovarian) was 4.03 µM, the TGI (OVCAR-5 ovarian) was > 100 µM and the GI50 (OVCAR-8 ovarian) was 3.68 µM. The TGI (OVCAR-8 ovarian) was 31.6 µM, the GI50 (PC-3 prostate) was 3.1 µM and the TGI (PC-3 prostate) was 92.9 µM. It also gave a GI50 (RPMI-8226 leukemia) of 2.3 µM, a TGI (RPMI-8226 leukemia) of 6.3 µM and a GI50 (SF-268 CNS) of 4.69 µM. The TGI (SF-268 CNS) was > 100 µM, the GI50 (SF-295 CNS) was 2.23 µM and the TGI (SF-295 CNS) was 6.55 µM. It also gave a GI50 (SF-539 CNS) of 3.07 µM, a TGI (SF-539 CNS) of 15.3 µM and a GI50 (SK-MEL-2 melanoma) of 2.79 µM. For the same compound, the TGI (SK-MEL-2 melanoma) was 6.66 µM, the GI50 (SK-MEL-28 melanoma) was 4.95 µM and the TGI (SK-MEL-28 melanoma) was 35.4 µM. For the same compound, the GI50 (SK-MEL-5 melanoma) was 1.77 µM, the TGI (SK-MEL-5 melanoma) was 3.45 µM and the GI50 (SK-OV-3 ovarian) was 2.21 µM. For the same compound, the TGI (SK-OV-3 ovarian) was 6.06 µM, the GI50 (SN12C renal) was 2.78 µM and the TGI (SN12C renal) was 9.59 µM. The GI50 (SNB-19 CNS) was 3.72 µM, the TGI (SNB-19 CNS) was > 100 µM and the GI50 (SNB-75 CNS) was 2.06 µM. It also gave a TGI (SNB-75 CNS) of 8.06 µM, a GI50 (SR leukemia) of 3.04 µM and a TGI (SR leukemia) of 8.96 µM. For the same compound, the GI50 (SW-620 colon) was 3.6 µM, the TGI (SW-620 colon) was 14.8 µM and the GI50 (T-47D breast) was 1.84 µM. It also gave a TGI (T-47D breast) of 6.43 µM, a GI50 (TK-10 renal) of 4.17 µM and a TGI (TK-10 renal) of 36.2 µM. It also gave a GI50 (U251 CNS) of 3.47 µM, a TGI (U251 CNS) of 14.1 µM and a GI50 (UACC-257 melanoma) of 3.34 µM. It also gave a TGI (UACC-257 melanoma) of 12.3 µM, a GI50 (UACC-62 melanoma) of 3.47 µM and a TGI (UACC-62 melanoma) of 16.1 µM. It also gave a GI50 (UO-31 renal) of 2.78 µM and a TGI (UO-31 renal) of 11.3 µM.
